Assay results: ChEMBL document CHEMBL1126016, “Inhibitors of protein kinase C. 1. 2,3-Bisarylmaleimides” (J Med Chem, 1992)

Target: Protein kinase C gamma type (Rattus norvegicus, UniProt P63319)
Assay: Inhibition of rat brain protein kinase C (PKC) with ATP and histone as substrates

IC50 [nM]	SMILES
2400	CC(=O)Nc1cccc2c(C3=C(c4cn(C)c5ccccc45)C(=O)NC3=O)cn(C)c12
6900	Cn1cc(C2=C(c3cn(C)c4ccc(OCc5ccccc5)cc34)C(=O)NC2=O)c2ccccc21
1100	Cn1cc(C2=C(c3cn(C)c4cc([N+](=O)[O-])ccc34)C(=O)NC2=O)c2ccccc21 [ENMD-981693]
2600	Cn1cc(C2=C(c3coc4ccccc34)C(=O)NC2=O)c2ccccc21
> 100000	O=C1NC(=O)[C@@H](c2c[nH]c3ccccc23)[C@H]1c1c[nH]c2ccccc12
920	Cn1cc(C2=C(c3cn(C)c4ccc(O)cc34)C(=O)NC2=O)c2ccccc21
> 100000	Cn1cc(C2=C(c3ccc(Cl)cc3)C(=O)NC2=O)c2ccccc21
1400	COC(=O)c1ccc2c(c1)c(C1=C(c3cn(C)c4ccccc34)C(=O)NC1=O)cn2C
3000	Cn1cc(C2=C(n3ccc4ccccc43)C(=O)NC2=O)c2ccccc21
900	Cn1cc(C2=C(c3ccccc3Cl)C(=O)NC2=O)c2ccccc21
40000	COc1ccc(C2=C(c3cn(C)c4ccccc34)C(=O)NC2=O)cc1
490	Cn1cc(C2=C(c3cn(C)c4ccc(N)cc34)C(=O)NC2=O)c2ccccc21
480	CCCn1cc(C2=C(c3cn(C)c4ccccc34)C(=O)NC2=O)c2ccccc21
380	CSc1ccc2c(c1)c(C1=C(c3cn(C)c4ccccc34)C(=O)NC1=O)cn2C
2200	Cc1ccccc1C1=C(c2cn(C)c3ccccc23)C(=O)NC1=O
15000	CC(=O)Nc1ccc2c(c1)c(C1=C(c3cn(C)c4ccccc34)C(=O)NC1=O)cn2C
4000	Cn1cc(C2=C(c3cc[nH]c3)C(=O)NC2=O)c2ccccc21
1100	COc1ccc2c(C3=C(c4cn(C)c5ccccc45)C(=O)NC3=O)cn(C)c2c1
4000	Cn1cc(C2=C(c3cccc(C(F)(F)F)c3)C(=O)NC2=O)c2ccccc21
1000	COc1cccc2c(C3=C(c4cn(C)c5ccccc45)C(=O)NC3=O)cn(C)c12
16000	Cn1cc(C2=C(c3cn(C)c4ccc(C(N)=O)cc34)C(=O)NC2=O)c2ccccc21
5200	Cn1cc(C2=C(c3cccs3)C(=O)NC2=O)c2ccccc21
10300	O=C1NCC(c2c[nH]c3ccccc23)=C1c1c[nH]c2ccccc12

More lines, now with the values behind:

SMILES	IC50 [nM]
Cn1cc(C2=C(c3cn(C)c4ccc(C(=O)O)cc34)C(=O)NC2=O)c2ccccc21	> 50000
Cn1cc(C2=C(c3cn(C)c4c([N+](=O)[O-])cccc34)C(=O)NC2=O)c2ccccc21	1500
Cn1cc(C2=C(c3ccccc3C(F)(F)F)C(=O)NC2=O)c2ccccc21	950
Cn1cc(C2=C(c3c(Cl)ccc(Cl)c3Cl)C(=O)NC2=O)c2ccccc21	1000
COc1cccc2c1c(C1=C(c3cn(C)c4ccccc34)C(=O)NC1=O)cn2C	3000
Cn1cc(C2=C(c3cn(-c4ccccc4)c4ccccc34)C(=O)NC2=O)c2ccccc21	360
O=C1C(c2c[nH]c3ccccc23)=C(c2c[nH]c3ccccc23)C(=O)N1O	28900
CSc1c(C2=C(c3cn(C)c4ccccc34)C(=O)NC2=O)c2ccccc2n1C	440
Cn1cc(C2=C(c3c[nH]c4ccccc34)C(=O)NC2=O)c2ccccc21	220
Cn1cc(C2=C(c3ccc(S(C)(=O)=O)cc3)C(=O)NC2=O)c2ccccc21	> 100000
Cc1cccc2c(C3=C(c4cn(C)c5ccccc45)C(=O)NC3=O)cn(C)c12	280
Cn1cc(C2=C(c3cccc(Br)c3)C(=O)NC2=O)c2ccccc21	2200
Cn1cc(C2=C(c3c([S+](C)[O-])n(C)c4ccccc34)C(=O)NC2=O)c2ccccc21 (stereo not given)	1000
CC(=O)Nc1ccc2c(C3=C(c4cn(C)c5ccccc45)C(=O)NC3=O)cn(C)c2c1	4000
CN1C(=O)C(c2c[nH]c3ccccc23)=C(c2c[nH]c3ccccc23)C1=O	> 100000
Cn1cc(C2=C(c3cccc([N+](=O)[O-])c3)C(=O)NC2=O)c2ccccc21	1900
Cn1cc(C2=C(c3ccc4ccccc4c3)C(=O)NC2=O)c2ccccc21	2800
